Counter-ions that a name gives are not always drawn.
Key:
[1] = tested on: cultured human mast cells (CHMC); experiment: CHMC low cell density IgE activation: tryptase assay; assay type: cell-based; conditions: Homo sapiens, Mast cell, low cell density CHMC, IgE activation, tryptase release
Method in brief: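 Tryptase release was read from supernatant with a fluorogenic substrate (30 min, room temperature) after anti-IgE challenge of cultured human mast cells (1000–1500 cells/well, low density) for 30 minutes at 37° C.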

[2] = tested on: cultured human mast cells (CHMC); experiment: CHMC low cell density ionomycin activation: tryptase assay; assay type: cell-based; conditions: Homo sapiens, Mast cell, low cell density CHMC, tryptase release, 3 pt, read-out: LD Tryptase, CHMC, Iono, 3 pt
[3] = 3 pt, read-out: LD Tryptase, CHMC, IgE, 3 pt
[4] = 8 pt, read-out: LD Tryptase, CHMC, IgE, 8 pt

SMILES	IC50 [1, 3]	IC50 [1, 4]	IC50 [2]
COCCn1ncc2ccc(Nc3ncc(F)c(Nc4ccc(Cl)c(Cl)c4)n3)cc21 [Compound 775, N4-(3,4-Dichlorophenyl)-5-fluoro-N2-[1-(2-methoxyethyl)indazol-6-yl]-2,4-pyrimidinediamine]	< 10 µM	< 10 µM	> 10 µM
COCCn1ncc2ccc(Nc3ncc(F)c(Nc4ccc(OC)c(Cl)c4)n3)cc21 [Compound 776, N4-(3-Chloro-4-methoxyphenyl)-5-fluoro-N2-[1-(2-methoxyethyl)indazol-6-yl]-2,4-pyrimidinediamine]	< 10 µM	< 10 µM	> 10 µM
COCCn1ncc2ccc(Nc3ncc(F)c(Nc4ccc5c(c4)NC(=O)C(C)(C)O5)n3)cc21 [Compound 777, N4-(2,2-Dimethyl-3-oxo-4H-benz[1,4]oxazin-6-yl)-5-fluoro-N2-[1-(2-methoxyethyl)indazol-6-yl]-2,4-pyrimidinediamine]	< 10 µM	< 10 µM	> 10 µM
COCCn1ncc2ccc(Nc3ncc(F)c(Nc4ccc(F)c(OC)c4)n3)cc21 [Compound 778, 5-Fluoro-N4-(4-fluoro-3-methoxyphenyl)-N2-[1-(2-methoxyethyl)indazol-6-yl]-2,4-pyrimidinediamine]	< 10 µM		> 10 µM
CC(=O)OCCCn1ncc2cc(Nc3ncc(F)c(Nc4ccc(Cl)c(Cl)c4)n3)ccc21 [Compound 787, N2-[1-(3-Acetyloxypropyl)indazol-5-yl]-N4-(3,4-dichlorophenyl)-5-fluoro-2,4-pyrimidinediamine]	< 10 µM	< 10 µM	> 10 µM
COc1ccc(Nc2nc(Nc3ccc4c(cnn4CCCOC(C)=O)c3)ncc2F)cc1Cl [Compound 788, N2-[1-(3-Acetyloxypropyl)indazol-5-yl]-N4-(3-chloro-4-methoxyphenyl)-5-fluoro-2,4-pyrimidinediamine]	< 10 µM	< 10 µM	> 10 µM
COc1cc(Nc2nc(Nc3ccc4c(cnn4CCCOC(C)=O)c3)ncc2F)ccc1F [Compound 789, N2-[1-(3-Acetyloxypropyl)indazol-5-yl]-5-fluoro-N4-(4-fluoro-3-methoxyphenyl)-2,4-pyrimidinediamine]	< 10 µM	< 10 µM	> 10 µM
CC(=O)OCCCn1ncc2ccc(Nc3ncc(F)c(Nc4ccc(Cl)c(Cl)c4)n3)cc21 [Compound 790, N2-[1-(3-Acetyloxypropyl)indazol-6-yl]-N4-(3,4-dichlorophenyl)-5-fluoro-2,4-pyrimidinediamine]	< 10 µM	< 10 µM	> 10 µM
CC1(C)Oc2ccc(Nc3nc(Nc4ccc5cnn(CCCO)c5c4)ncc3F)cc2NC1=O [Compound 791, N4-(2,2-Dimethyl-3-oxo-4H-benz[1,4]oxazin-6-yl)-5-fluoro-N2-[1-(3-hydroxypropyl)indazol-6-yl]-2,4-pyrimidinediamine]	< 10 µM	< 10 µM	> 10 µM
COCCCn1ncc2cc(Nc3ncc(F)c(Nc4ccc(Cl)c(Cl)c4)n3)ccc21 [Compound 793, N4-(3,4-Dichlorophenyl)-5-fluoro-N2-[1-(3-methoxypropyl)indazol-5-yl]-2,4-pyrimidinediamine]	< 10 µM	< 10 µM	> 10 µM
COCCCn1ncc2cc(Nc3ncc(F)c(Nc4ccc5c(c4)NC(=O)C(C)(C)O5)n3)ccc21 [Compound 794, N4-(2,2-Dimethyl-3-oxo-4H-benz[1,4]oxazin-6-yl)-5-fluoro-N2-[1-(3-methoxypropyl)indazol-5-yl]-2,4-pyrimidinediamine]	< 10 µM	< 10 µM	> 10 µM
COCCCn1ncc2cc(Nc3ncc(F)c(Nc4ccc5c(c4)NC(=O)[C@H](C)O5)n3)ccc21 [Compound 795, (S)-5-Fluoro-N2-[1-(3-methoxypropyl)indazol-5-yl]-N4-(2-methyl-3-oxo-2H,4H-benz[1,4]oxazin-6-yl)-2,4-pyrimidinediamine]	< 10 µM	< 10 µM	> 10 µM
COCCCn1ncc2ccc(Nc3ncc(F)c(Nc4ccc(OC)c(Cl)c4)n3)cc21 [Compound 796, N4-(3-Chloro-4-methoxyphenyl)-5-fluoro-N2-[1-(3-methoxypropyl)indazol-6-yl]-2,4-pyrimidinediamine]	< 10 µM	< 10 µM	> 10 µM
COCCCn1ncc2ccc(Nc3ncc(F)c(Nc4ccc(Cl)c(Cl)c4)n3)cc21 [Compound 797, N4-(3,4-Dichlorophenyl)-5-fluoro-N2-[1-(3-methoxypropyl)indazol-6-yl]-2,4-pyrimidinediamine]	< 10 µM	< 10 µM	> 10 µM
COCCCn1ncc2ccc(Nc3ncc(F)c(Nc4ccc5c(c4)NC(=O)C(C)(C)O5)n3)cc21 [Compound 798, N4-(2,2-Dimethyl-3-oxo-4H-benz[1,4]oxazin-6-yl)-5-fluoro-N2-[1-(3-methoxypropyl)indazol-6-yl]-2,4-pyrimidinediamine]	< 10 µM	< 10 µM	< 10 µM
COCCCn1ncc2ccc(Nc3ncc(F)c(Nc4ccc5c(c4)NC(=O)[C@H](C)O5)n3)cc21 [Compound 799, (S)-5-Fluoro-N2-[1-(3-methoxypropyl)indazol-6-yl]-N4-(2-methyl-3-oxo-2H,4H-benz[1,4]oxazin-6-yl)-2,4-pyrimidinediamine]	< 10 µM	< 10 µM	> 10 µM
CC1(C)Oc2ccc(Nc3nc(Nc4ccc5[nH]c(C(F)(F)F)nc5c4)ncc3F)cc2NC1=O [Compound 802, N4-(2,2-Dimethyl-3-oxo-4H-benz[1,4]oxazin-6-yl)-5-fluoro-N2-(2-trifluoromethyl-1H-benzimidazol-5-yl)-2,4-pyrimidinediamine]	< 10 µM	< 10 µM	> 10 µM
C[C@@H]1Oc2ccc(Nc3nc(Nc4ccc5[nH]c(C(F)(F)F)nc5c4)ncc3F)cc2NC1=O [Compound 803, (S)-5-Fluoro-N4-(2-methyl-3-oxo-2H,4H-benz[1,4]oxazin-6-yl)-N2-(2-trifluoromethyl-1H-benzimidazol-5-yl)-2,4-pyrimidinediamine]	< 10 µM	< 10 µM	> 10 µM
Cc1nc2ccc(Nc3ncc(F)c(Nc4ccc5c(c4)NC(=O)[C@H](C)O5)n3)cc2[nH]1 [Compound 811, (S)-5-Fluoro-N2-(2-methyl-3H-benzimidazol-5-yl)-N4-(2-methyl-3-oxo-2H,4H-benz[1,4]oxazin-6-yl)-2,4-pyrimidinediamine]	< 10 µM	< 10 µM	> 10 µM
COc1ccc(Nc2nc(Nc3ccc4c(cnn4CCCO)c3)ncc2F)cc1Cl [Compound 827, N4-(3-Chloro-4-methoxyphenyl)-5-fluoro-N2-[1-(3-hydroxypropyl)indazol-5-yl]-2,4-pyrimidinediamine p-Toluenesulfonic Acid Salt]	< 10 µM		> 10 µM
COc1ccc(Nc2nc(Nc3ccc4c(cnn4CCCNS(C)(=O)=O)c3)ncc2F)cc1Cl [Compound 832, N4-(3-Chloro-4-methoxyphenyl)-5-fluoro-N2-[1-[3-(N-methylsulfonylamino)propyl]indazol-5-yl]-2,4-pyrimidinediamine]	< 10 µM	< 10 µM	> 10 µM
